In patent US8778966B2, “Quinolinone derivatives as PARP and tank inhibitors” (Janssen Pharmaceutica, NV, priority 2007, dated 2014):

How the values were obtained:
Human PARP-1 enzyme = target: T1, Human PARP-1 enzyme (Homo sapiens, UniProt P09874); test: In vitro Scintillation Proximity Assay (SPA) for PARP-1 inhibitory activity; type: biochemical; settings: read-out: in vitro SPA assay PARP-1 pIC50 (converted)
T1 construct: purchased Trevigen
Method in brief: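 SPA assay: nicked-DNA-activated PARP-1 (0.1–0.2 μg/ml) ADP-ribosylates biotinylated histones (2 μg/ml) using [3H]-NAD+, 20 min at RT in Tris pH 8/DTT/MgCl2, stopped with 2 mM NAD+. Blank-subtracted cpm expressed as % control; IC50 by linear interpolation, reported as pIC50 (10−5 to 3×10−9 M tested).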

PC3 cells = test: EB1 Comet (microtubule disruption) assay; type: cell-based, human; settings: 1 hour treatment; for minimal effective concentration: Homo sapiens, PC-3, 1 h, read-out: EB1 pLAC (converted)
Method in brief: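 Readout is loss of Eb1 plus-end foci, scored by immunofluorescence microscopy, in PC3 cells after 1 h compound treatment at 37 °C with 0.6% final DMSO. LAC is defined as the lowest concentration leaving at least 50% of cells without Eb1 foci.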

T1 sequence (P09874 whole entry): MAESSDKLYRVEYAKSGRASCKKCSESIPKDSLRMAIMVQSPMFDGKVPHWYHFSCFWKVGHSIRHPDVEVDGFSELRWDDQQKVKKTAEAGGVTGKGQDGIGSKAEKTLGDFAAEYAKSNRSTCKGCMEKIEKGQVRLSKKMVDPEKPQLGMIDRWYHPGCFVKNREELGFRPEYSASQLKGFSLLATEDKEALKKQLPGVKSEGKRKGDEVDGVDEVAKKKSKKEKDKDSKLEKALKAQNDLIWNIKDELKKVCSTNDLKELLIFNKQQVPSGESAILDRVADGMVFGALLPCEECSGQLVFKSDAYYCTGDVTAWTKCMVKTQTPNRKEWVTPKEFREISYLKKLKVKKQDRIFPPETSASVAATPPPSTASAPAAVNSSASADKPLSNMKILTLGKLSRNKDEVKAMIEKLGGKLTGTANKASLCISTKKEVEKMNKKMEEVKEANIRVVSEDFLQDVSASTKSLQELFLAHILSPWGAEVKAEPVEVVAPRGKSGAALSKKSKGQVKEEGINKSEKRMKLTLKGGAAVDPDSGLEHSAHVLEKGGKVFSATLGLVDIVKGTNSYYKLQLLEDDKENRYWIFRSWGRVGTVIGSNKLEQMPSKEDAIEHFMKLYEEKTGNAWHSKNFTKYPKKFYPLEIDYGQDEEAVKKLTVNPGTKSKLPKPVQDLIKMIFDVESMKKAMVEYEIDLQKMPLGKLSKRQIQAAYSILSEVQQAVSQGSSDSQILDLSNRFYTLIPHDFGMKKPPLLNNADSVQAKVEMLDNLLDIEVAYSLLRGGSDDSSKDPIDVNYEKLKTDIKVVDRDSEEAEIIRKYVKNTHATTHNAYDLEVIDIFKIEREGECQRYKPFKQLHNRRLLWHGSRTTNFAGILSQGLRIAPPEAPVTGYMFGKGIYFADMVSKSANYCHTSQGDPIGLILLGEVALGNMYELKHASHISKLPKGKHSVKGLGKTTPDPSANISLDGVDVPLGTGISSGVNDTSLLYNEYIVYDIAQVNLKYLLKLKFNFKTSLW

| IC50 (Human PARP-1 enzyme) [nM] | Compound | minimal effective concentration (PC3 cells) [µM] | EB1 pLAC (PC3 cells) |
| --- | --- | --- | --- |
| 100 | Cc1cc2ccc(C(C)(C#N)Cc3cccc(Oc4ccccn4)c3)cc2[nH]c1=O (centres unmarked) [Compound 304] | 0.1 | – |
| 39.8 | CCOc1cc(N(C)C)nc(CC(C)(C#N)c2ccc3cc(CC)c(=O)[nH]c3c2)n1 (centres unmarked) [Compound 312] | 1 | – |
| 63.1 | CCOc1cc(C#N)nc(CC(C)(C#N)c2ccc3cc(CC)c(=O)[nH]c3c2)n1 (centres unmarked) [Compound 315] | 1 | – |
| 39.8 | CCc1cc2ccc(C(C#N)(CC)Cc3nc(C#N)cc(OC)n3)cc2[nH]c1=O (centres unmarked) [Compound 316] | 3.16 | – |
| 79.4 | CCc1cc2ccc(C(C#N)(CC)Cc3nc(OC)cc(OC)n3)cc2[nH]c1=O (centres unmarked) [Compound 321] | 0.316 | – |
| 39.8 | CCc1cc2ccc(C(C)(C#N)Cc3ccnc(C#N)c3)cc2[nH]c1=O (centres unmarked) [Compound 324] | 1 | – |
| 63.1 | CCc1cc2ccc(C(C)(C#N)Cc3cc(C)nc(Cl)c3)cc2[nH]c1=O (centres unmarked) [Compound 326] | 3.16 | – |
| 31.6 | CCc1cc2ccc(C(C)(C#N)Cc3cccc(F)n3)cc2[nH]c1=O (centres unmarked) [Compound 331] | 0.1 | – |
| 31.6 | CCc1cc2ccc([C@](C)(C#N)Cc3cc(F)cc(F)c3)cc2[nH]c1=O [Compound 333] | 10 | – |
| 100 | CCc1cc2ccc(C(C)(C#N)Cc3ccc(C(F)(F)F)nc3C)cc2[nH]c1=O (centres unmarked) [Compound 340] | 10 | – |
| 63.1 | CCc1cc2ccc(C(C)(C#N)Cc3ccnc(Cl)c3)cc2[nH]c1=O (centres unmarked) [Compound 341] | 10 | – |
| 79.4 | CCc1cc2ccc(C(C#N)(CC)Cc3cccc(C#N)n3)cc2[nH]c1=O (centres unmarked) [Compound 342] | 3.16 | – |
| 79.4 | CCc1cc2ccc(C(C)(C#N)CCOc3ccnc(SC)n3)cc2[nH]c1=O (centres unmarked) [Compound 348] | 10 | – |
| 63.1 | CCc1cc2ccc(C(C)(C#N)CCOc3ncc(Br)cn3)cc2[nH]c1=O (centres unmarked) [Compound 349] | 1 | – |
| 100 | CCc1cc2ccc(C(C)(C#N)Cc3nc(C)cc(OC)n3)cc2[nH]c1=O (centres unmarked) [Compound 371] | 0.316 | – |
| 158 | CCc1cc2ccc(C(C)(C#N)CN3CCc4ccccc4C3)cc2[nH]c1=O (centres unmarked) [Compound 376] | 3.16 | – |
| 126 | CCc1cc2ccc([C@](C)(C#N)C[C@H]3Cc4ccccc4O3)cc2[nH]c1=O [Compound 397] | 3.16 | – |
| 100 | CCc1cc2ccc(C(C)(C#N)CC3Oc4ccccc4O3)cc2[nH]c1=O (centres unmarked) [Compound 398] | 3.16 | – |
| 50.1 | CCc1cc2ccc(C(C)(C#N)Cc3cc(F)cc(F)c3)cc2[nH]c1=O (centres unmarked) [Compound 402] | – | 6.5 |
